From patent US20150353626A1, “APOLIPOPROTEIN A-I DERIVED PEPTIDES FOR TREATMENT OF HYPERGLYCAEMIA” (priority 2013, published 2015)

Tests used:
AMPK = experiment: Western blot for phosphorylated AMPK in L6 myotube lysates; type: cell-based; settings: L6 myotubes, 60 minutes; 2, 10 or 20 μmol/l 190-243 peptide; FIG. 8c
Procedure: (§1) Prior to stimulation or treatment cultured myoblast cells were serum starved for 4 hours in serum-free α-MEM and all subsequent treatments, including insulin or phenformin as positive controls (Sigma), were performed in serum free a-MEM. After treatments, cells were washed with ice cold PBS buffer and lysed on ice using a non-denaturing lysis buffer (1% Triton X-100, 50 mmol/l Tris, 150 mmol/l NaCl, pH 8.0) containing protease and phosphatase inhibitors (Roche). Lysates were centrifuged at 16,000×g, 20 minutes at 4° C. and BCA protein assay (Pierce) was performed on supernatants. Equal protein amounts were separated by SDS-PAGE and transferred to nitrocellulose membranes. pAMPK, AMPK, pACC, pAkt, Akt and tubulin were used for immunodetection with IRDye 800CW and 680RD secondary antibodies (LI-COR). Blots were imaged using the Odyssey Fc system and quantified using Image studio v2.0 software.
To dissect the effect of discoidal rHDL on a non-insulin dependent signaling pathway, we conducted western blotting using lysates from L6 myotubes incubated with rHDL. […] Phenformin was used as a positive control, inducing a 1.98±0.33-fold (p=≦0.05) and 2.7±0.74-fold (p=≦0.05) elevation of phosphorylated AMPK and ACC, respectively, at a concentration of 0.4 mmol/l. […] Representative immunoblots of those quantified for FIGS. 3a, c and f are given in FIGS. 3b, d and e, respectively. […]

[1] = tested on: insulin resistant C57Bl/6 mice; experiment: Glucose tolerance test in high-fat diet fed (HFD) mice; type: in vivo, mouse
Procedure: Male C57BL/6 mice (Taconic) were used at 9-12 weeks of age. Animals were on a 12 hour light cycle with non-restricted food and water. The HFD animals were fed an HFD (D12492, 60% fat content; Research Diets) for 2 weeks. All animal procedures were approved by the Malmo/Lund Committee for Animal Experiment Ethics, Lund, Sweden. HFD mice fasted overnight (12 hours) were injected intra peritoneal (i.p.) with apoA-I peptides as listed above ([…] in PBS pH 7.4 for the 54-mer fragment and 6-7 mg/kg for other fragments in PBS, pH 7.4; control animals received NaCl) and this was followed by collection of serum samples at the indicated times. Glucose (50 mg/mouse) was injected i.p. 3 hours after treatments, followed by collection of serum samples at the indicated times. Blood glucose levels were measured (OnetouchUltra2; Lifescan), and insulin levels were assayed in serum using ELISA (Mercodia).

[2] = Circular dichroism spectroscopy, alpha-helical content; type: physicochemical; settings: 0.2 mg/ml in PBS pH 7.4, 25° C.
Procedure: CD measurements were performed on a Jasco J-810 spectropolarimeter equipped with a Jasco CDF-4265 Peltier set to 25° C. ApoA-I (full-length and the 190-234 polypeptide fragment) was diluted to 0.2 mg/ml in PBS (final concentration was 25 mmol/l phosphate, 25 mmol/l NaCl, pH 7.4), placed in a 0.1 mm quartz cuvette and, after extensive purging with nitrogen, scanned in the region 200 to 260 nm (scan speed was 20 nm/min). Averages of five scans were baseline-subtracted (PBS; 25 mmol/l phosphate, 25 mmol/l NaCl) and the alpha-helical content was calculated from the molar ellipticity at 222 nm as previously described (Petrlova et al. (2012) J Lipid Res 53: 390-398).

Akt = experiment: Western blot for phosphorylated Akt in L6 myotube lysates; type: cell-based; settings: L6 myotubes, 60 minutes
Procedure: as §1
To dissect the effect of discoidal rHDL on a non-insulin dependent signaling pathway, we conducted western blotting using lysates from L6 myotubes incubated with rHDL. […] Phenformin was used as a positive control, inducing a 1.98±0.33-fold (p=≦0.05) and 2.7±0.74-fold (p=≦0.05) elevation of phosphorylated AMPK and ACC, respectively, at a concentration of 0.4 mmol/l. […] For clarity 1 nmol/l insulin (n=2) and 100 nmol/l insulin (n=3) (51±12.5-fold; p=≦0.01) was plotted in FIG. 3e. Representative immunoblots of those quantified for FIGS. 3a, c and f are given in FIGS. 3b, d and e, respectively.
The effect of the peptide fragment 190-243 of human Apo A-I (SEQ ID NO: 1) on a non-insulin dependent signaling pathway, was tested using lysates from L6 myotubes as described above for rHDL. Myotubes were serum starved for 4 hours then treated for 60 minutes with 2, 10 or 20 μmol/l of 190-243 peptide, 1 mmol/l phenformin, 100 nmol/l insulin, or control (C) followed by western blot analysis for phosphorylated AMPK (AMP-activated protein kinase) or phosphorylated Akt. Tubulin was used as loading control. Blots shown are representative of three independent experiments.

[3] = 7 mg/kg i.p., 120 minutes of the test

Row | Substance | levels of phosphorylated AMPK (in words) (AMPK) | increase of glucose-stimulated insulin secretion (AUC) versus control [1, 3] | reduction of total glucose (AUC) versus control [1, 3] | insulin secretion in glucose tolerance test (in words) ([1]; single i.p. injection 7 mg/kg, glucose load 3 hours later, FIG. 10c,d) | helical content from molar ellipticity at 222 nm [2] [%] | Akt phosphorylation (in words) (Akt; 2, 10 or 20 μmol/l 190-243 peptide, FIG. 8c) | Akt phosphorylation (Akt; insulin 100 nmol/l) [fold] | Akt phosphorylation (Akt; rHDL 700 μg/ml apoA-I, insulin 1 nmol/l, ± S.D.) [fold]
1 | 190-243 polypeptide fragment: polypeptide fragment consisting of amino acids 190-243 of the full-length human apoA-I protein, C-terminal domain, 54-mer, recombinant (AEYHAKATEHLSTLSEKAKPALEDLRQGLLPVLESFKVSFLSALEEYTKKLNTQ; listed as Homo Sapiens) | increased levels of phosphorylated AMPK | about 60% | about 40% | significantly improved | 28 | unaffected |  | 
2 | insulin |  |  |  |  |  |  | 51±12.5 | 2.06±0.47
